From ChEMBL document CHEMBL3804767, “Discovery and Preclinical Evaluation of BMS-955829, a Potent Positive Allosteric Modulator of mGluR5” (ACS Med Chem Lett, 2016)

How the values were obtained:
[1] = molecular target: T1, Metabotropic glutamate receptor 5 (Homo sapiens, UniProt P41594)
Description: Positive allosteric modulation of human mGlu5A receptor expressed in HEK293 cells coexpressing rat glutamate-aspartate transporter assessed as potentiation of L-glutamate-induced Ca2+ signal incubated for 60 mins by calcium 4 dye based FLIPR assay

[2] = molecular target: T1, Metabotropic glutamate receptor 5; remark: listed apart in the source
Description: Agonist activity at human mGlu5A receptor expressed in HEK293 cells coexpressing rat glutamate-aspartate transporter assessed as induction of Ca2+ release by calcium 4 dye based FLIPR assay

[3] = molecular target: T1, Metabotropic glutamate receptor 5; test: Displacement of [3H]MPEP in mGlu5 receptor (unknown origin) incubated for 60 mins by liquid scintillation counting method
Mus musculus [4] = test: Neurotoxicity in C57/BL6 mouse assessed as induction of convulsion at 3 mg/kg, ip; assay type: toxicity, organism-based; settings: in vivo
[5] = Protein binding in plasma (unknown origin); assay type: ADME, cell-free; settings: read-out: PPB (converted)
Mus musculus [6] = test: Toxicity in C57/BL6 mouse assessed as death at 3 mg/kg, ip; assay type: organism-based; settings: in vivo
[7] = molecular target: T1, Metabotropic glutamate receptor 5; remark: listed apart in the source
Description: Displacement of [3H]MPEPgamma in mGlu5 receptor (unknown origin) incubated for 60 mins by liquid scintillation counting method

Mus musculus [8] = test: Neurotoxicity in C57/BL6 mouse assessed as induction of convulsion at 30 mg/kg, ip; assay type: toxicity, organism-based; settings: in vivo

T1 sequence (P41594 whole entry): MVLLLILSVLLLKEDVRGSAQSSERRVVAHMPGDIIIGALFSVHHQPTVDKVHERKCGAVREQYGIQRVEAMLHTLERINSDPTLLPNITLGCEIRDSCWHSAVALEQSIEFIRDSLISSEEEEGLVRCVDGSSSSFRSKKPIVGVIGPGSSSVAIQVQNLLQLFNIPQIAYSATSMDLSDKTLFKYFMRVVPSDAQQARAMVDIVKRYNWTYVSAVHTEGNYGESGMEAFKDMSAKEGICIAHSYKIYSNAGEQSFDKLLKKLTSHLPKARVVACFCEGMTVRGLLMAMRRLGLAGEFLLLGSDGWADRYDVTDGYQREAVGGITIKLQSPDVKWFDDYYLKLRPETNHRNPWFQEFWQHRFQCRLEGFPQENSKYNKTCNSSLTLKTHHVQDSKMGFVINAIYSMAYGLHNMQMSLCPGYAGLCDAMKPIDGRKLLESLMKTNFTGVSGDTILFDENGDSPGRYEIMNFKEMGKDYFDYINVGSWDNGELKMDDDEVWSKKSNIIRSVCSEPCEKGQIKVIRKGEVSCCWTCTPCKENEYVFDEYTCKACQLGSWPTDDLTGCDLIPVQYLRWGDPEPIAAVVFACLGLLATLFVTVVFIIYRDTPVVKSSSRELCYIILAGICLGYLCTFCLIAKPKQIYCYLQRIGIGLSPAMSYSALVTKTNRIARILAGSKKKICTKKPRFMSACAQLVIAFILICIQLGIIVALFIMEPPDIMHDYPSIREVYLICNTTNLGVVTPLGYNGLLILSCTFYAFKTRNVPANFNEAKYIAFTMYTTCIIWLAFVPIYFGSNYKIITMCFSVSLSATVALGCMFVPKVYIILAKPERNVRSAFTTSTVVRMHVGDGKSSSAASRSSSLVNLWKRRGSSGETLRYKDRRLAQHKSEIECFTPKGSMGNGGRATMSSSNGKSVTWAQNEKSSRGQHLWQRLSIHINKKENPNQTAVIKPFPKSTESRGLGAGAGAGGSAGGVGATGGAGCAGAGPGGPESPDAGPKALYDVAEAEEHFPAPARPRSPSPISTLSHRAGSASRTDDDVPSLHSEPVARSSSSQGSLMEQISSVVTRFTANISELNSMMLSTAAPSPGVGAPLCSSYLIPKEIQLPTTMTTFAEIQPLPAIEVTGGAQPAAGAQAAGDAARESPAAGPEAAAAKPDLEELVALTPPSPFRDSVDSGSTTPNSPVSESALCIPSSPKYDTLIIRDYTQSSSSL

## O=C1N[C@H](c2cccc(C#Cc3ccccc3)c2)[C@@H](c2cccc(F)c2)O1
[1]
  EC50: 15 nM
[2]
  EC50: > 30000 nM
[3]
  Ki: 6.5 nM

## O=C1N[C@H](c2cncc(C#Cc3ccccc3)c2)[C@@H](c2cccc(F)c2)O1
Mus musculus [4]
  Activity: Toxic
[5]
  fraction unbound: 0.004
Mus musculus [6]
  Activity: Toxic

## O=C1N[C@H](c2cc(C#Cc3ccccc3)ccn2)[C@@H](c2ccccc2)O1
[7]
  Ki: 10 nM
[1]
  EC50: > 3000 nM
[2]
  EC50: > 3000 nM
Mus musculus [8]
  Activity: Non-toxic
[5]
  fraction unbound: 0.006
